# Laboratory results reported in patent publication US20240271226A1, “METHODS OF PATHOGEN IDENTIFICATION AND ANTIMICROBIAL SUSCEPTIBILITY TESTING” (priority 2020, published 2024).
# “And” between values parts separate entries of the source, which are not always exact repeats. Equal entries are not always repeated. {FAM-O} = FAM dye attached through an O linker at the PNA N-terminus; {IABk} = Iowa Black quencher
# Legend:
# [1] = tested on: multi-drug resistant strain of E. coli (ATCC BAA 2471); details: cited from earlier work
# uropathogenic E. coli = details: Baltimore, USA; cited from earlier work
# [2] = tested on: E. coli ATCC 25922 16S rRNA; experiment: Bulk PNA probe hybridization assay in urine, LIF detection; type: binding; details: ~10^9 CFU/mL E. coli ATCC 25922 spiked in urine; 2 min 95° C. lysis, 30 min 60° C. hybridization
# Source text: (§1) PNA probes were designed to target specific regions in the 16S rRNA for organisms belonging to the Enterobacterales (EB) order, the E. coli and P. mirabilis species (EC and PM), and the eubacterial kingdom (UNI), based on previous work (52, 72) (Table 1). The EB, EC, and PM probes were labeled with a FAM fluorophore, whereas the universal probe was labeled with an Alexa546 fluorophore. For each PNA probe, a short complementary DNA quencher was designed labeled with an Iowa Black® dark quencher. All probes were synthesized by PNA Bio (Newbury Park, CA), and all DNA quencher strands were synthesized by Integrated DNA Technologies (San Diego, CA). Probes and quenchers were stored in a custom hybridization buffer consisting of 50 mM NaCl, 25 mM Tris-HCl pH 8.0, and 0.5% polyvinylpyrrolidone (PVP) at −20° C. PVP is included to reduce the likelihood of probes being adsorbed to or retained by the walls of the PDMS devices. Prior to each experiment, individual aliquots of PNA probes were first thawed at 60° C. for 10 min to ensure full dissolution of the PNA stock into the hybridization buffer. For both bulk-based and droplet experiments, 200 nM PNA probes were mixed with 600 nM of the corresponding quencher in the custom hybridization buffer, and this solution was either mixed in bulk or co-encapsulated into droplets at a 1:1 ratio along with bacteria-containing urine and/or MH suspensions. An appropriate dosage of antibiotics was included in this mixture if required for the experiment.
# (§2) We first verified that the probes can specifically detect target bacteria spiked into urine. […] We spiked ˜10^9 CFU/mL (equivalent to 1 cell in a ˜1 pL droplet) of standard reference strains of E. coli ATCC 25922, P. mirabilis ATCC 12453, K. pneumoniae ATCC BAA 1705, and P. aeruginosa ATCC 27853 into a mixture of culture-negative (i.e., blank) urine samples and hybridization buffer with each PNA probe. Each sample was subjected to 2 min of thermal lysis at 95° C. and 30 min of hybridization at 60° C., and then detected at room temperature within a 10 μm-wide microfluidic detection channel by our 2-color LIF detector (FIG. 6).
# [3] = Tm of designed PNA probes; type: physicochemical
# Source text: as §1, with “An appropriate dosage of antibiotics was included in this mixture if required for the experiment.” left out
# [4] = tested on: P. aeruginosa ATCC 27853 16S rRNA; experiment: Bulk PNA probe hybridization assay in urine, LIF detection; type: binding; details: ~10^9 CFU/mL P. aeruginosa ATCC 27853 spiked in urine; 2 min 95° C. lysis, 30 min 60° C. hybridization
# Source text: as §1, §2
# [5] = tested on: K. pneumoniae ATCC BAA 1705 16S rRNA; experiment: as above; type: binding; details: ~10^9 CFU/mL K. pneumoniae ATCC BAA 1705 spiked in urine; 2 min 95° C. lysis, 30 min 60° C. hybridization
# Source text: as §1, §2
# [6] = tested on: P. mirabilis ATCC 12453 16S rRNA; experiment: as above; type: binding; details: ~10^9 CFU/mL P. mirabilis ATCC 12453 spiked in urine; 2 min 95° C. lysis, 30 min 60° C. hybridization
# Source text: as §1, §2
# [7] = tested on: multi-drug resistant E. coli ATCC BAA 2471; experiment: Bulk pheno-molecular AST by 16S rRNA hybridization detection; type: cell-based; details: gentamicin 8 μg/mL, 20 μL bulk, 0-120 min at 37° C., EC PNA probe
# Source text: (§3) We note that we can achieve preliminary pheno-molecular AST by directly detecting PNA-to-16S rRNA hybridization in the bulk format via the LIF detector, though only after relatively lengthy antibiotic exposure. […] We then determined the relative fluorescence intensity—the ratio between the fluorescence intensities of the gentamicin-dosed cells and the gentamicin-free cells—for both strains for each culture duration.
# [8] = tested on: reference E. coli ATCC 25922; experiment: as above; type: cell-based
# Source text: as §3
# [9] = tested on: multi-drug resistant E. coli; experiment: In-droplet single-cell 16S rRNA AST in spiked urine; type: cell-based; details: gentamicin 8 μg/mL, urine with 2×MH broth, 37° C. for 30, 15, 10 or 5 min
# Description: We next sought to minimize the culture/antibiotic exposure time for assessing antimicrobial susceptibility in urine. We separately digitized reference and multi-drug resistant E. coli-spiked urine samples, each along with 2×MH broth and EC PNA probes in droplets without and with gentamicin (bactericidal concentration of 8 μg/mL). Each gentamicin-free and gentamicin-dosed droplet group pair was then incubated at 37° C. for 30, 15, 10, or 5 min, followed by lysis, hybridization, and LIF detection (FIG. 13B). Longer bacterial culture result in higher production of 16S rRNA in gentamicin-free bacterial cells and therefore increased positive droplet frequencies. […] The effect of gentamicin on the two strains can be differentiated after as short as 10 min culture/antibiotic exposure, the minimum time at which there is no overlap between the error envelopes around the normalized positive droplet populations. […] As a result, we achieve assessment of antimicrobial susceptibility faster than the average replication time of an E. coli cell, a feat that ultimately paves the way for integrating molecular ID and AST to well under 30 min.
# Finally, we investigated the utility of our single-cell 16S rRNA-based phenomolecular AST approach against 3 clinically important antibiotics. […]. […]
# E. coli cells = experiment: In-droplet single-cell 16S rRNA AST in MH broth; type: cell-based
# Source text: A custom MATLAB program was developed for analyzing the raw fluorescence intensity data acquired from the APD. From the fluorescence intensity time trace of each experimental run, the program looks for individual droplets by quantifying peak widths and peak heights. Once droplet position and fluorescence intensity were identified for all droplets in a sample, the intensities were plotted as a histogram with ˜150 bins. Resulting histograms typically follow a bimodal distribution, and in order to classify the respective subpopulations, the first droplet histogram peak (“empty droplets”) were fitted with a Gaussian curve. Based on the fitted curve, the mean intensity of the empty droplet population as well as the standard deviation were calculated. All droplets whose intensities were 5 standard deviations above the empty droplet mean intensity were counted as bacteria-containing “positive droplets.” Signal to background ratios were calculated by dividing the mean intensity of positive droplets by the mean intensity of empty droplets.
# We first co-encapsulated the EC probe and E. coli cells, which were spiked into Mueller-Hinton broth (MH), into picoliter droplets. […]
# reference E. coli = experiment: In-droplet single-cell 16S rRNA AST in spiked urine; type: cell-based; details: gentamicin 8 μg/mL, urine with 2×MH broth, 37° C. for 30, 15, 10 or 5 min
molecule,measurement,setting,value
O=C(O)c1cn(C2CC2)c2cc(N3CCNCC3)c(F)cc2c1=O [ciprofloxacin],reported resistance of the strain,[1],resistant
same,resistance rate,uropathogenic E. coli,≤ 31%
CC1(C)S[C@@H]2[C@H](NC(=O)[C@H](N)c3ccccc3)C(=O)N2[C@H]1C(=O)O [ampicillin],reported resistance of the strain,[1],resistant
"EC probe: FAM-labeled PNA probe FAM-O-TCAATGAGCAAAGGT-KK targeting E. coli 16S rRNA, with Iowa Black DNA quencher IABk-AGTTACTCGT (chain 1: all peptide nucleic acid (PNA), 5' {FAM-O}; chain 2: DNA, 5' {IABk}, backbone and methylation of C not given here; PNA carries two C-terminal lysines)",probe fluorescence signal in the presence of target bacteria over blank urine background,[2],significantly higher signal
same,Tm,[3],76.3 °C
"UNI probe: Alexa546-labeled pan-bacteria PNA probe GCTGCCTCCCGTAGGA-K-Alexa546 targeting eubacterial 16S rRNA, with DNA quencher GGAGGGCATCCT-IABk (PNA, lysine-Alexa546, DNA quencher strand, chemistry not fully specified)",probe fluorescence signal in the presence of target bacteria over blank urine background,[4],successfully detects
same,probe fluorescence signal in the presence of target bacteria over blank urine background,[5],successfully detects
same,probe fluorescence signal in the presence of target bacteria over blank urine background,[6],successfully detects
same,probe fluorescence signal in the presence of target bacteria over blank urine background,[2],successfully detects
same,Tm,[3],80.5 °C
gentamicin,relative fluorescence intensity (gentamicin-dosed cells / gentamicin-free cells),[7],~1
same,culture/antibiotic exposure needed to see or differentiate the effect on susceptible vs resistant E. coli,"[8]; bulk format, vs multi-drug resistant E. coli BAA 2471",> 90 min and 90 min
same,relative fluorescence intensity (gentamicin-dosed cells / gentamicin-free cells),"[8]; gentamicin 8 μg/mL, 20 μL bulk, 0-120 min at 37° C., EC PNA probe",significantly lower relative fluorescence intensities
same,normalized positive droplet population,[9],comparatively higher and relatively unchanging normalized positive droplet population
same,normalized positive droplet population versus antibiotic concentration,"E. coli cells; E. coli in MH broth, droplets",decreases as the concentration of gentamicin increases
same,frequency of positive droplets,"E. coli cells; gentamicin 128 μg/mL, 30 min culture/antibiotic exposure, MH broth, 4×10^7 CFU/mL E. coli, no-antibiotic control 7.70%",3.12%
same,reported resistance of the strain,[1],resistant
same,normalized positive droplet population,reference E. coli,decreasing normalized positive droplet population over increasing culture times
